Source: the supplement of paper PMC11061612

How the values were obtained:
A375 (Melanoma) [1] = test: Bliss excess, mean over the matrix (fraction); higher = more synergy
Summary of the method: (§1)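 Cell lines in DMEM/F12 or RPMI with 10% FBS were plated in 1536-well plates, held 24 hours at 37°C, 5% CO2, then given two-drug dose matrices for 72 hours (DMSO typically 0.2%). Viability was read by CellTiter-Glo 2.0 luminescence and scaled as inhibition from 0 (vehicle wells) to 1 (blank wells). Combination Emax is the second-highest inhibition in the matrix; Bliss excess is observed combination effect minus expected EA + EB − EA·EB, EA and EB being single-agent effects.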

[2] = test system: BC-1 (B-Cell Non-Hodgkin's Lymphoma); test: as above
Summary of the method: as §1

C32 (Melanoma) [3] = test: as above
Summary of the method: as §1

[4] = test system: CAL-85-1 (Breast Carcinoma); test: as above
Summary of the method: as §1

[5] = test system: COR-L105 (Lung Adenocarcinoma); test: as above
Summary of the method: as §1

GCIY (Gastric Carcinoma) [6] = test: as above
Summary of the method: as §1

[7] = test system: KNS-62 (Squamous Cell Lung Carcinoma); test: as above
Summary of the method: as §1

[8] = test system: L-363 (Plasma Cell Myeloma); test: as above
Summary of the method: as §1

[9] = test system: MDA-MB-175-VII (Breast Carcinoma); test: as above
Summary of the method: as §1

MG-63 (Osteosarcoma) [10] = test: as above
Summary of the method: as §1

[11] = test system: MRK-nu-1 (Breast Carcinoma); test: as above
Summary of the method: as §1

[12] = test system: NCI-H1435 (Non-Small Cell Lung Carcinoma); test: as above
Summary of the method: as §1

[13] = test system: NCI-H1648 (Lung Adenocarcinoma); test: as above
Summary of the method: as §1

[14] = test system: NCI-H2009 (Lung Adenocarcinoma); test: as above
Summary of the method: as §1

[15] = test system: NCI-H2023 (Non-Small Cell Lung Carcinoma); test: as above
Summary of the method: as §1

NCI-H2452 (Mesothelioma) [16] = test: as above
Summary of the method: as §1

[17] = test system: NCI-H835 (Other Solid Carcinomas); test: as above
Summary of the method: as §1

[18] = test system: NTERA-2-cl-D1 (Other Solid Carcinomas); test: as above
Summary of the method: as §1

[19] = test system: OVKATE (Ovarian Carcinoma); test: as above
Summary of the method: as §1

[20] = test system: RPMI-8402 (T-Lymphoblastic Leukemia); test: as above
Summary of the method: as §1

[21] = test system: SBC-3 (Small Cell Lung Carcinoma); test: as above
Summary of the method: as §1

SK-MEL-24 (Melanoma) [22] = test: as above
Summary of the method: as §1

[23] = test system: SW1463 (Colorectal Carcinoma); test: as above
Summary of the method: as §1

A375 (Melanoma) [24] = test: combination Emax (second highest fraction inhibited in the dose matrix, 72 h); higher = more inhibition; extreme values may be limits of the assay
Summary of the method: as §1

[25] = test system: BC-1 (B-Cell Non-Hodgkin's Lymphoma); test: as above
Summary of the method: as §1

C32 (Melanoma) [26] = test: as above
Summary of the method: as §1

[27] = test system: CAL-85-1 (Breast Carcinoma); test: as above
Summary of the method: as §1

[28] = test system: COR-L105 (Lung Adenocarcinoma); test: as above
Summary of the method: as §1

GCIY (Gastric Carcinoma) [29] = test: as above
Summary of the method: as §1

[30] = test system: KNS-62 (Squamous Cell Lung Carcinoma); test: as above
Summary of the method: as §1

[31] = test system: L-363 (Plasma Cell Myeloma); test: as above
Summary of the method: as §1

[32] = test system: MDA-MB-175-VII (Breast Carcinoma); test: as above
Summary of the method: as §1

MG-63 (Osteosarcoma) [33] = test: as above
Summary of the method: as §1

[34] = test system: MRK-nu-1 (Breast Carcinoma); test: as above
Summary of the method: as §1

[35] = test system: NCI-H1435 (Non-Small Cell Lung Carcinoma); test: as above
Summary of the method: as §1

[36] = test system: NCI-H1648 (Lung Adenocarcinoma); test: as above
Summary of the method: as §1

[37] = test system: NCI-H2009 (Lung Adenocarcinoma); test: as above
Summary of the method: as §1

[38] = test system: NCI-H2023 (Non-Small Cell Lung Carcinoma); test: as above
Summary of the method: as §1

NCI-H2452 (Mesothelioma) [39] = test: as above
Summary of the method: as §1

[40] = test system: NCI-H835 (Other Solid Carcinomas); test: as above
Summary of the method: as §1

[41] = test system: NTERA-2-cl-D1 (Other Solid Carcinomas); test: as above
Summary of the method: as §1

[42] = test system: OVKATE (Ovarian Carcinoma); test: as above
Summary of the method: as §1

[43] = test system: RPMI-8402 (T-Lymphoblastic Leukemia); test: as above
Summary of the method: as §1

[44] = test system: SBC-3 (Small Cell Lung Carcinoma); test: as above
Summary of the method: as §1

SK-MEL-24 (Melanoma) [45] = test: as above
Summary of the method: as §1

[46] = test system: SW1463 (Colorectal Carcinoma); test: as above
Summary of the method: as §1
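For Bliss excess, mean over the matrix in this document: after 72 h of two-drug dosing.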

`C[C@@H](Oc1cc(-c2cnn(C3CCNCC3)c2)cnc1N)c1c(Cl)ccc(F)c1Cl` [Crizotinib] + Cn1cnc2c(F)c(Nc3ccc(Br)cc3Cl)c(C(=O)NOCCO)cc21 [Selumetinib] (first compound max 10 µM, 7x7, partner max 10 µM) gave a Bliss excess (A375 (Melanoma) [1]) of 0.0035, a Bliss excess [2] of -0.045 and a Bliss excess (C32 (Melanoma) [3]) of 0.0411. It also gave a Bliss excess [4] of -0.055, a Bliss excess [5] of -0.0146 and a Bliss excess (GCIY (Gastric Carcinoma) [6]) of -0.0266. It also gave a Bliss excess [7] of -0.042, a Bliss excess [8] of 0.0316 and a Bliss excess [9] of 0.0011. The Bliss excess (MG-63 (Osteosarcoma) [10]) was -0.0017, the Bliss excess [11] was -0.0633 and the Bliss excess [12] was -0.0088. The Bliss excess [13] was -0.108, the Bliss excess [14] was 0.0062 and the Bliss excess [15] was -0.0007. The Bliss excess (NCI-H2452 (Mesothelioma) [16]) was -0.0494, the Bliss excess [17] was -0.0653 and the Bliss excess [18] was -0.027. The Bliss excess [19] was -0.0392, the Bliss excess [20] was -0.0606 and the Bliss excess [21] was -0.0502. For the same compound, the Bliss excess (SK-MEL-24 (Melanoma) [22]) was -0.0034, the Bliss excess [23] was -0.0443 and the “combination Emax” value (A375 (Melanoma) [24]) was 0.938. For the same compound, the “combination Emax” value [25] was 0.838, the “combination Emax” value (C32 (Melanoma) [26]) was 0.995 and the “combination Emax” value [27] was 0.412. For the same compound, the “combination Emax” value [28] was 0.472, the “combination Emax” value (GCIY (Gastric Carcinoma) [29]) was 0.46 and the “combination Emax” value [30] was 0.369. The “combination Emax” value [31] was 0.871, the “combination Emax” value [32] was 0.267 and the “combination Emax” value (MG-63 (Osteosarcoma) [33]) was 0.672. The “combination Emax” value [34] was 0.224, the “combination Emax” value [35] was 0.136 and the “combination Emax” value [36] was 0.58. For the same compound, the “combination Emax” value [37] was 0.664, the “combination Emax” value [38] was 0.57 and the “combination Emax” value (NCI-H2452 (Mesothelioma) [39]) was 0.551. For the same compound, the “combination Emax” value [40] was 0.646, the “combination Emax” value [41] was 0.742 and the “combination Emax” value [42] was 0.193. The “combination Emax” value [43] was 0.99, the “combination Emax” value [44] was 0.97 and the “combination Emax” value (SK-MEL-24 (Melanoma) [45]) was 0.93. For the same compound, the “combination Emax” value [46] was 0.622.
In the case of `CN(CCO)CC[C@H](CSc1ccccc1)Nc1ccc(S(=O)(=O)NC(=O)c2ccc(N3CCC([C@@H](O)c4ccccc4-c4ccc(Cl)cc4)CC3)cc2)cc1S(=O)(=O)C(F)(F)F` [AZD4320] + Nc1ccn([C@@H]2O[C@H](CO)[C@@H](O)C2(F)F)c(=O)n1 [Gemcitabine] (first compound max 1 µM, 7x7, partner max 0.3 µM), the Bliss excess (A375 (Melanoma) [1]) is reported as 0.0047, the Bliss excess [2] is reported as -0.0074 and the Bliss excess (C32 (Melanoma) [3]) is reported as 0.0027. It also gave a Bliss excess [4] of -0.0055, a Bliss excess [5] of -0.0111 and a Bliss excess (GCIY (Gastric Carcinoma) [6]) of -0.0151. The Bliss excess [7] was -0.0024, the Bliss excess [8] was 0.0563 and the Bliss excess [9] was 0.125. For the same compound, the Bliss excess (MG-63 (Osteosarcoma) [10]) was 0.0293, the Bliss excess [11] was 0.0117 and the Bliss excess [12] was -0.0344. For the same compound, the Bliss excess [13] was -0.0274, the Bliss excess [14] was -0.013 and the Bliss excess [15] was 0.0338. The Bliss excess (NCI-H2452 (Mesothelioma) [16]) was -0.0035, the Bliss excess [17] was 0.0682 and the Bliss excess [18] was -0.0239. It also gave a Bliss excess [19] of -0.0542, a Bliss excess [20] of -0.0457 and a Bliss excess [21] of 0.0194. For the same compound, the Bliss excess (SK-MEL-24 (Melanoma) [22]) was -0.0082, the Bliss excess [23] was -0.0192 and the “combination Emax” value (A375 (Melanoma) [24]) was 0.996. For the same compound, the “combination Emax” value [25] was 0.974, the “combination Emax” value (C32 (Melanoma) [26]) was 0.805 and the “combination Emax” value [27] was 0.702. For the same compound, the “combination Emax” value [28] was 0.514, the “combination Emax” value (GCIY (Gastric Carcinoma) [29]) was 0.782 and the “combination Emax” value [30] was 0.595. The “combination Emax” value [31] was 0.458, the “combination Emax” value [32] was 0.824 and the “combination Emax” value (MG-63 (Osteosarcoma) [33]) was 0.973. The “combination Emax” value [34] was 0.892, the “combination Emax” value [35] was 0.823 and the “combination Emax” value [36] was 0.49. The “combination Emax” value [37] was 0.505, the “combination Emax” value [38] was 0.884 and the “combination Emax” value (NCI-H2452 (Mesothelioma) [39]) was 0.355. For the same compound, the “combination Emax” value [40] was 0.966, the “combination Emax” value [41] was 0.663 and the “combination Emax” value [42] was 0.246. The “combination Emax” value [43] was 1, the “combination Emax” value [44] was 1 and the “combination Emax” value (SK-MEL-24 (Melanoma) [45]) was 0.901. The “combination Emax” value [46] was 0.455.
